{"source": "patent US12569563B2", "about": "“Selective HDAC6 degraders and methods of use thereof” (DANA-FARBER CANCER INSTITUTE, INC., priority 2019, dated 2026)", "target": "T1, CRBN (Homo sapiens, UniProt Q96SW2)", "T1 construct": "endogenous in cells; host or cells: Flp-In 293 cells stably expressing BRD4BD2-eGFP-P2A-mCherry", "test": "Cellular CRBN engagement assay (competition with dBET6, BRD4BD2-eGFP reporter)", "assay_type": "cell-based", "details": "Flip-In 293 BRD4BD2-eGFP cells, 100 nM dBET6, 5 h", "from_the_text": "The cellular CRBN engagement assay measures the cellular binding affinity which is the combination of the compound's cell permeability and their binding affinity to CRBN. This is done by measuring the ability of thalidomide-based degrader molecules to compete with pan-BET bromodomain degrader dBET6 (Nowak et al., Nat. Chem. Biol. 14:706-714 (2018)) for CRBN binding in cells. If no degrader compound is present in the cell, BRD4BRD2-eGFP is degraded by dBET6 via the proteasome system. […]\nCells were seeded at 30-50% confluency in either 24, 48 or 96 well plates (3524, 3548, 3596 respectively, Costar) a day before compound treatment. The inventive compounds were titrated in the presence of 100 nM dBET6 and then were incubated with cells for 5 h following trypsinization and resuspension in DMEM media, transferred into 96-well plates (353910, Falcon®) and analyzed by flow cytometer (Guava® easyCyte™ HT, Millipore®). Signal from at least 3000 events per well was acquired and the eGFP and mCherry florescence monitored. Data was analyzed using FlowJo® (FlowJo®, LCC). Forward and side scatter outliers, frequently associated with cell debris, were removed leaving >90% of total cells, followed by removal of eGFP and mCherry signal outliers, leaving 88-90% of total cells creating the set used for quantification. […]", "data": [{"smiles": "CN(C(=O)CCCCCNc1cccc2c1C(=O)N(C1CCC(=O)NC1=O)C2=O)c1ccc(NC(=O)CCCCCCC(=O)NO)cc1", "note": "(stereo not shown) [Compound 2, N^1-(4-(6-((2-(2,6-dioxopiperidin-3-yl)-1,3-dioxoisoindolin-4-yl)amino)-N-methylhexanamido)phenyl)-N^8-hydroxyoctanediamide]", "values": [{"measurement": "IC50", "result": 5.37, "unit": "µM"}]}]}
